Measured values as given in patent US7166622B2, “Substituted phenylsulfonamide inhibitors of beta amyloid production” (Wyeth, priority 2002, dated 2007).

How the values were obtained:
[1] = system: CHO-K1 cells; test: Toxicity in RRA (loss of luciferase signal); conditions: toxicity = loss of signal (<0.75 fold increase)
[2] = system: beta amyloid production; test: Repressor Release Assay (RRA); type: cell-based; conditions: for fold induction at 3 µg/mL: Conc 3 μg/ml; for fold induction at 10 µg/mL: Conc 10 μg/ml; for fold induction at 20 µg/mL / APPI Fold Increase / APPI % of Example #98: Conc 20 μg/ml; for APPI % of Example #98: relative to Example 98
Protocol: CHO-K1 cells were cultured in whole DMEM media (DMEM—High Glucose with 10% fetal bovine serum, 1% Non-essential Amino Acids, and 1% Penicillin-Streptomycin) at 37° C. with 5% CO2. Two million cells were plated into 10-cm dishes 24 hrs prior to transfection.
Transient transfections were completed as recommended by Gibco BRL using their Lipofectamine Plus system. First, 6 μg of pRSVO-luc and 6 μg of APP-lacI construct DNA were added to 460 μL Opti-Mem transfection media and incubated with 30 μL Plus reagent for 15 minutes. Then, a lipid mixture of 40 μL Lipofectamine reagent and 460 μL Opti-Mem transfection media was incubated with the DNA-Plus reagent mixture for 15 minutes. During the DNA-lipid incubation, the CHO-K1 cells were washed once and covered in 5.0 mL DMEM media without Penicillin-Streptomycin. The DNA-lipid preparation was then layered onto these cells and incubated at 37° C. overnight.
[…] transfected cells per well (100 μL total volume) were plated into sterile, opaque Packard 96-well Culture-Plates in clear DMEM whole media (DMEM—without phenol red) and incubated at 37° C. with 5% CO2 for 3-5 hours.
Compounds were diluted using two different protocols; one protocol was used for compounds supplied neat (weighed powder in vial) and the other protocol was used for compounds supplied in solution (20 mM in DMSO in 96-well plates). For both protocols, 25 mM Hepes and 25 mM Hepes/1% DMSO were prepared fresh to be used as diluent. The Hepes/DMSO was used as the diluent control on all experimental plates.
The following table depicts the steps for compound dilution (please note that the last step was the addition of compound to cells/media in tissue culture plate).
Because some compounds were present in 96-well format at 20 mM, the following represents the protocol for their dilution (note that an average molecular weight of these compounds was used to calculate these dilutions and as above, the last step was the addition of compound to cells/media in tissue culture plate).
Once the compounds were diluted, they were applied in duplicate on cells in tissue culture plates (prepared above). Cells were incubated with compound at 37° C. with 5% CO2 for an additional 36-48 hours.
Luciferase assays (LucLite reagent, Packard) were performed and were read on a Packard TopCount instrument. Media was removed from each 96-well plate and replaced with 100 μL PBS per well (with Mg^2+ and Ca^2+). An equal volume (100 μL) of the LucLite lysis/substrate buffer was added to each well and the plates were sealed and mixed in the dark on a rotary shaker for 15-30 minutes at room temperature. Luciferase readings were then taken on the TopCount instrument. Measurements were expressed as relative light units (RLU) and are calculated and analyzed in MS Excel as follows: […]

[3] = luciferase activity over diluent control, read-out: APPI Fold Increase
[4] = luciferase activity over diluent control

For CC[C@H](C)[C@@H](CO)NS(=O)(=O)c1cccc(Cl)c1Cl [Example 23, 2,3-dichloro-N-[(1S,2S)-1-(hydroxymethyl)-2-methylbutyl]benzenesulfonamide], the “(%)APPI Toxicity” value ([1]; Conc 3 μg/ml) was 1 (1=non-toxic), the “(%)APPI Toxicity” value ([1]; Conc 10 μg/ml) was 1 (1=non-toxic) and the “(%)APPI Toxicity” value ([1]; Conc 20 μg/ml) was 1 (1=non-toxic). For the same compound, the fold induction at 3 µg/mL [2, 3] was 1.67, the fold induction at 10 µg/mL [2, 3] was 3.6 and the fold induction at 20 µg/mL [2, 3] was 8.3.

CC[C@H](C)[C@@H](CO)NS(=O)(=O)c1ccc(Cl)c(Cl)c1 [Example 24, 3,4-dichloro-N-[(1S,2S)-1-(hydroxymethyl)-2-methylbutyl]benzenesulfonamide] was tested, and the “(%)APPI Toxicity” value ([1]; Conc 20 μg/ml) was 1 (1=non-toxic) and the fold induction at 20 µg/mL [2, 3] was 1.6.

In the case of CC[C@H](C)[C@@H](CO)NS(=O)(=O)c1cc(Cl)c(Cl)cc1Cl [Example 25, 2,4,5-trichloro-N-[(1S,2S)-1-(hydroxymethyl)-2-methylbutyl]benzenesulfonamide], the “(%)APPI Toxicity” value ([1]; Conc 20 μg/ml) is reported as 1 (1=non-toxic) and the fold induction at 20 µg/mL [2, 3] is reported as 1.8.

For CC(C)[C@@H](CO)NS(=O)(=O)c1cc(F)c(Br)cc1F [Example 26, 4-bromo-2,5-difluoro-N-[(1S)-1-(hydroxymethyl)-2-methylpropyl]benzenesulfonamide], the “(%)APPI Toxicity” value ([1]; Conc 20 μg/ml) was 1 (1=non-toxic) and the fold induction at 20 µg/mL [2, 3] was 2.4.

With CC(C)[C@@H](CO)NS(=O)(=O)c1ccc(Cl)c(Cl)c1 [Example 27, 3,4-dichloro-N-[(1S)-1-(hydroxymethyl)-2-methylpropyl]benzenesulfonamide] the “(%)APPI Toxicity” value ([1]; Conc 20 μg/ml) was 1 (1=non-toxic) and the fold induction at 20 µg/mL [2, 3] was 2.2.

CC(C)[C@@H](CO)NS(=O)(=O)c1c(Cl)cc(Cl)cc1Cl [Example 28, 2,4,6-trichloro-N-[(1S)-1-(hydroxymethyl)-2-methylpropyl]benzenesulfonamide] was tested, and the “(%)APPI Toxicity” value ([1]; Conc 20 μg/ml) was 1 (1=non-toxic) and the fold induction at 20 µg/mL [2, 3] was 1.5.

CC(C)(C)[C@@H](CO)NS(=O)(=O)c1ccc(Cl)c(Cl)c1 [Example 30, 3,4-dichloro-N-[(1S)-1-(hydroxymethyl)-2,2-dimethylpropyl]benzenesulfonamide] was tested, and the “(%)APPI Toxicity” value ([1]; Conc 20 μg/ml) was 1 (1=non-toxic) and the fold induction at 20 µg/mL [2, 3] was 2.1.

With CC(C)(C)[C@@H](CO)NS(=O)(=O)c1cc(Cl)c(Cl)cc1Cl [Example 31, 2,4,5-trichloro-N-[(1S)-1-(hydroxymethyl)-2,2-dimethylpropyl]benzenesulfonamide] the “(%)APPI Toxicity” value ([1]; Conc 20 μg/ml) was 1 (1=non-toxic) and the fold induction at 20 µg/mL [2, 3] was 2.8.

For CC(C)(C)[C@@H](CO)NS(=O)(=O)c1c(Cl)cc(Cl)cc1Cl [Example 32, 2,4,6-trichloro-N-[(1 S)-1-(hydroxymethyl)-2,2-dimethylpropyl]benzenesulfonamide], the “(%)APPI Toxicity” value ([1]; Conc 20 μg/ml) was 1 (1=non-toxic) and the fold induction at 20 µg/mL [2, 3] was 2.2.

With CC[C@@H](C)[C@H](CO)NS(=O)(=O)c1ccc(Br)cc1 [Example 33, 4-Bromo-N-[(1R,2R)-1-(hydroxymethyl)-2-methylbutyl]benzenesulfonamide] the “(%)APPI Toxicity” value ([1]; Conc 20 μg/ml) was 1 (1=non-toxic) and the fold induction at 20 µg/mL [2, 3] was 3.9.

For CC(C)[C@@](C)(CO)NS(=O)(=O)c1ccc(Br)cc1 [Example 34, 4-bromo-N-[(1 S)-1-(hydroxymethyl)-1,2-dimethylpropyl]benzenesulfonamide], the “(%)APPI Toxicity” value ([1]; Conc 20 μg/ml) was 1 (1=non-toxic) and the fold induction at 20 µg/mL [2, 3] was 4.2.

For CC(c1ccccc1)C(CO)NS(=O)(=O)c1ccc(Br)cc1 (stereo not drawn) [Example 35, 4-bromo-N-[-1-(hydroxymethyl)-2-phenylpropyl]benzenesulfonamide], the “(%)APPI Toxicity” value ([1]; Conc 20 μg/ml) was 1 (1=non-toxic) and the fold induction at 20 µg/mL [2, 3] was 2.4.

CC[C@@H](C)[C@@H](CO)NS(=O)(=O)c1ccc(Br)cc1 [Example 36, 4-bromo-N-[(1S,2R)-1-(hydroxymethyl)-2-methylbutyl]benzenesulfonamide] was tested, and the “(%)APPI Toxicity” value ([1]; Conc 1 μg/ml) was 1 (1=non-toxic), the “(%)APPI Toxicity” value ([1]; Conc 3 μg/ml) was 1 (1=non-toxic) and the “(%)APPI Toxicity” value ([1]; Conc 10 μg/ml) was 1 (1=non-toxic). For the same compound, the “(%)APPI Toxicity” value ([1]; Conc 20 μg/ml) was 1 (1=non-toxic), the fold induction at 1 µg/mL ([2]; Conc 1 μg/ml, luciferase activity over diluent control, read-out: APPI Fold Increase) was 1.6 and the fold induction at 3 µg/mL [2, 3] was 2.05. The fold induction at 10 µg/mL [2, 3] was 3.33 and the fold induction at 20 µg/mL [2, 3] was 6.4.

With CC(C)[C@@](C)(CO)NS(=O)(=O)c1ccc(Cl)cc1 [Example 37, 4-chloro-N-[(1S)-1-(hydroxymethyl)-1,2-dimethylpropyl]benzenesulfonamide] the “(%)APPI Toxicity” value ([1]; Conc 20 μg/ml) was 1 (1=non-toxic) and the fold induction at 20 µg/mL [2, 3] was 4.7.

In the case of CC(c1ccccc1)C(CO)NS(=O)(=O)c1ccc(Cl)cc1 (stereo not drawn) [Example 38, 4-chloro-N-[1-(hydroxymethyl)-2-phenylpropyl]benzenesulfonamide], the “(%)APPI Toxicity” value ([1]; Conc 20 μg/ml) is reported as 1 (1=non-toxic) and the fold induction at 20 µg/mL [2, 3] is reported as 3.3.

In the case of CC[C@@H](C)[C@@H](CO)NS(=O)(=O)c1ccc(Cl)cc1 [Example 39, 4-chloro-N-[(1S,2R)-1-(hydroxymethyl)-2-methylbutyl]benzenesulfonamide], the “(%)APPI Toxicity” value ([1]; Conc 3 μg/ml) is reported as 1 (1=non-toxic), the “(%)APPI Toxicity” value ([1]; Conc 10 μg/ml) is reported as 1 (1=non-toxic) and the “(%)APPI Toxicity” value ([1]; Conc 20 μg/ml) is reported as 1 (1=non-toxic). The fold induction at 3 µg/mL [2, 3] was 1.56, the fold induction at 10 µg/mL [2, 3] was 2.47 and the fold induction at 20 µg/mL [2, 3] was 5.5.

C=CCN([C@H](CO)[C@@H](C)CC)S(=O)(=O)c1ccc(Cl)cc1 [Example 40, N-Allyl-4-chloro-N-[(1S,2 S)-1-(hydroxymethyl)-2-methylbutyl]benzenesulfonamide] was tested, and the “(%)APPI Toxicity” value ([1]; Conc 20 μg/ml) was 1 (1=non-toxic) and the fold induction at 20 µg/mL [2, 3] was 3.4.

CC[C@H](C)[C@@H](CO)N(Cc1ccc(-c2ccccc2)cc1)S(=O)(=O)c1ccc(Cl)cc1 [Example 41, N-([1,1′-biphenyl]-4-ylmethyl)-4-chloro-N-[(1S,2S)-1-(hydroxymethyl)-2-methylbutyl]benzenesulfonamide] was tested, and the “(%)APPI Toxicity” value ([1]; Conc 20 μg/ml) was 1 (1=non-toxic) and the fold induction at 20 µg/mL [2, 3] was 4.9.

For CC[C@H](C)[C@@H](CO)N(Cc1ccc(Cl)cc1)S(=O)(=O)c1ccc(Cl)cc1 [Example 43, 4-chloro-N-(4-chlorobenzyl)-N-[(1S,2S)-1-(hydroxymethyl)-2-methylbutyl]benzenesulfonamide], the “(%)APPI Toxicity” value ([1]; Conc 20 μg/ml) was 1 (1=non-toxic) and the fold induction at 20 µg/mL [2, 3] was 5.1.

With CC[C@H](C)[C@@H](CO)N(CC1CCC1)S(=O)(=O)c1ccc(Cl)cc1 [Example 44, 4-chloro-N-(cyclobutylmethyl)-N-[(1S,2S)-1-(hydroxymethyl)-2-methylbutyl] benzenesulfonamide] the “(%)APPI Toxicity” value ([1]; Conc 20 μg/ml) was 1 (1=non-toxic), the “APPI Fold Increase” value [2, 4] was 2.6 fold and the “APPI % of Example #98” value [2] was 95.7%.

CC[C@H](C)[C@@H](CO)N(Cc1ccc(OC)c(OC)c1)S(=O)(=O)c1ccc(Cl)cc1 [Example 45, 4-chloro-N-(3,4-dimethoxybenzyl)-N-[(1S,2S)-1-(hydroxymethyl)-2-methylbutyl]benzenesulfonamide] was tested, and the “(%)APPI Toxicity” value ([1]; Conc 20 μg/ml) was 1 (1=non-toxic) and the fold induction at 20 µg/mL [2, 3] was 1.5.

For CC[C@H](C)[C@@H](CO)N(Cc1ccco1)S(=O)(=O)c1ccc(Cl)cc1 [Example 46, 4-chloro-N-(2-furylmethyl)-N-[(1S,2S)-1-(hydroxymethyl)-2-methylbutyl]benzenesulfonamide], the “(%)APPI Toxicity” value ([1]; Conc 20 μg/ml) was 1 (1=non-toxic) and the fold induction at 20 µg/mL [2, 3] was 1.8.

With CC[C@H](C)[C@@H](CO)N(CCSC)S(=O)(=O)c1ccc(Cl)cc1 [Example 47, 4-chloro-N-[(1S,2S)-1-(hydroxymethyl)-2-methylbutyl]-N-[2-(methylthio)ethyl]benzenesulfonamide] the “(%)APPI Toxicity” value ([1]; Conc 20 μg/ml) was 1 (1=non-toxic) and the fold induction at 20 µg/mL [2, 3] was 2.4.

With CC[C@H](C)[C@@H](CO)N(CC#Cc1ccccc1)S(=O)(=O)c1ccc(Cl)cc1 [Example 48, 4-chloro-N-[(1S,2S)-1-(hydroxymethyl)-2-methylbutyl]-N-(3-phenylprop-2-ynyl) benzenesulfonamide] the “(%)APPI Toxicity” value ([1]; Conc 20 μg/ml) was 1 (1=non-toxic), the “APPI Fold Increase” value [2, 4] was 3.1 fold and the “APPI % of Example #98” value [2] was 116.6%.

With COc1ccc([C@@H](C)[C@@H](CO)NS(=O)(=O)c2ccc(Cl)cc2)cc1 [Example 49, 4-Chloro-N-[(1S,2R)-1-(hydroxymethyl)-2-(4-methoxyphenyl)propyl]benzenesulfonamide] the “(%)APPI Toxicity” value ([1]; Conc 20 μg/ml) was 1 (1=non-toxic) and the fold induction at 20 µg/mL [2, 3] was 2.5.
